Here are results for 24 compounds from patent US10787444B2, “Compounds for the modulation of myc activity” (Syros Pharmaceuticals, Inc., priority 2015, dated 2020).

Where a name gives a salt, the structure may show the parent alone. Read-outs that look alike come from different tables or passages of the source.

In assay [1] the target is T1, c-Myc/Max/Ebox DNA (Homo sapiens, UniProt P01106).
T1 construct: his6 (cleaved yes)
Description: c-Myc/Max/Ebox DNA AlphaScreen Assay. Format: binding. The note with it: Table 2, compounds of FIG. 1, calculated IC50 class. An outline of the steps: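 Compounds were preincubated with free c-Myc (20 nM), biotinylated single-Ebox DNA (10 nM) and Ni acceptor beads before his6-Max (5 nM) and streptavidin donor beads were added. Buffer was 50 mM HEPES pH 8.0, 150 mM NaCl, BSA, Tween20, glycogen and DTT, with DMSO ≤2%. After 2 h incubation, AlphaScreen signal was read at 680 nm excitation and 520–620 nm emission.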

The test system of assay [2] is human small lung cancer cell line H2171. Description: Cell Viability Assay (ATPlite). Format: cell-based. The conditions noted are these: read-out: H2171 Activity. Summed up:
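Viability readout was ATPlite luminescence, taken after 3 days' incubation at 37° C. Human SCLC H2171 cells (20,000 cells/mL) received compound right after plating, as a 10-point dose response.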
On the technique in general: Cellular ATP, detected with luciferase, serves as a proxy for viable cell number.

The mark [3] stands for this setting: Homo sapiens, NCI-H2171, 72 h, Table 2, compounds of FIG. 1, H2171 cells, three days, ATPlite, calculated IC50 class.

T1 sequence (P01106 whole entry): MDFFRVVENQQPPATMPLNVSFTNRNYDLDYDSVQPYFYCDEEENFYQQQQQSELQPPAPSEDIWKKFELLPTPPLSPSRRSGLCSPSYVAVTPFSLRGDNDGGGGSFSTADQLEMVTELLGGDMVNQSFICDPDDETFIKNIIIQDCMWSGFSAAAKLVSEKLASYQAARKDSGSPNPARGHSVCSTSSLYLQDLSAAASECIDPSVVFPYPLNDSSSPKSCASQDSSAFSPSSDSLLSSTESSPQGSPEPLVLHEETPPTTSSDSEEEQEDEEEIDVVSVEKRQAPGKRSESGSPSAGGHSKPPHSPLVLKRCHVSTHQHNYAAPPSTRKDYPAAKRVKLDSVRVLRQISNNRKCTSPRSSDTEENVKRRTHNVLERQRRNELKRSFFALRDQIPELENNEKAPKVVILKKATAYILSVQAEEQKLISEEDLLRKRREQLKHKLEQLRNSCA

As to `CC(C)N1CCc2c(sc(NC(=O)CCN3CCC3)c2-c2nc3ccccc3s2)C1` [Compound 541, 3-(Azetidin-1-yl)-N-(3-(benzo[d]thiazol-2-yl)-6-isopropyl-4,5,6,7-tetrahydrothieno[2,3-c]pyridin-2-yl)propanamide], the IC50 is 0.3 to 1 µM in assay [1] and under 0.3 µM in assay [2] (Homo sapiens, NCI-H2171, 72 h).
As for `CC(C)CNCCC(=O)Nc1sc2c(c1-c1nc3ccccc3s1)CCN(C(C)C)C2` [Compound 552, N-(3-(Benzo[d]thiazol-2-yl)-6-isopropyl-4,5,6,7-tetrahydrothieno[2,3-c]pyridin-2-yl)-3-(isobutylamino)propanamide], the IC50 in assay [1] and in assay [2] (setting [3]) was under 0.3 µM in each case.
As to `CCC(C)NCCC(=O)Nc1sc2c(c1-c1nc3cc4c(cc3s1)OCO4)CCNC2` (centres unmarked) [Compound 555, N-(3-([1,3]Dioxolo[4′,5′:4,5]benzo[1,2-d]thiazol-6-yl)-4,5,6,7-tetrahydrothieno[2,3-c]pyridin-2-yl)-3-(sec-butylamino)propanamide], the IC50 was under 0.3 µM in assay [1]; 1 to 10 µM in assay [1] (listed as 116); under 0.3 µM in assay [2] (setting [3]); 1 to 10 µM in assay [2] (Table 2, compounds of FIG. 1, H2171 cells, three days, ATPlite, calculated IC50 class, listed as 116).
As for `COCCNCCC(=O)Nc1sc2c(c1-c1nc3cc4c(cc3s1)OCO4)CCNC2` [Compound 556, N-(3-([1,3]Dioxolo[4′,5′:4,5]benzo[1,2-d]thiazol-6-yl)-4,5,6,7-tetrahydrothieno[2,3-c]pyridin-2-yl)-3-((2-methoxyethyl)amino)propanamide], the IC50 in assay [1] and in assay [2] (setting [3]) was under 0.3 µM each time.
Take `COCCNCCC(=O)Nc1sc2c(c1-c1nc3cc(F)ccc3s1)CCN[C@@H]2C` [Compound 557]: the IC50 in assay [1] and in assay [2] (setting [3]) was under 0.3 µM in each case.
Regarding `CCC(C)NCCC(=O)Nc1sc2c(c1-c1nc3cc4c(cc3s1)OCO4)CCN(C(C)C)C2` (centres unmarked) [Compound 563, N-(3-([1,3]Dioxolo[4′,5′:4,5]benzo[1,2-d]thiazol-6-yl)-6-isopropyl-4,5,6,7-tetrahydrothieno[2,3-c]pyridin-2-yl)-3-(sec-butylamino)propanamide], the IC50 in assay [1] and in assay [2] (setting [3]) was under 0.3 µM throughout.
Consider `COCCNCCC(=O)Nc1sc2c(c1-c1nc3cc(F)ccc3s1)C[C@H](C)NC2` [Compound 571], for which the IC50 in assay [1] and in assay [2] (setting [3]) was under 0.3 µM in each case.
On to `CCN(C)CCC(=O)Nc1sc2c(c1-c1nc3ccccc3s1)CCN(C(C)C)C2` [Compound 572], for which the IC50 is 0.3 to 1 µM in assay [1] and under 0.3 µM in assay [2] (setting [3]).
For `O=C(CCN[C@@H]1C[C@H]2CNC[C@H]2C1)Nc1sc2c(c1-c1nc3ccccc3s1)CCNC2` [Compound 573, N-(3-(Benzo[d]thiazol-2-yl)-4,5,6,7-tetrahydrothieno[2,3-c]pyridin-2-yl)-3-(((3aR,5s,6aS)-octahydrocyclopenta[c]pyrrol-5-yl)amino)propanamide], the IC50 in assay [1] and in assay [2] (setting [3]) was 0.3 to 1 µM in each case.
As for `CC[C@@H](C)NCCC(=O)Nc1sc2c(c1-c1nc3cc(C(F)(F)F)ccc3s1)CCN(C(C)C)C2` [Compound 574, (R)-3-(sec-butylamino)-N-(6-isopropyl-3-(5-(trifluoromethyl)benzo[d]thiazol-2-yl)-4,5,6,7-tetrahydrothieno[2,3-c]pyridin-2-yl)propanamide], the IC50 in assay [1] and in assay [2] (setting [3]) was under 0.3 µM throughout.
Take `COCCNCCC(=O)Nc1sc2c(c1-c1nc3cc(C(F)(F)F)ccc3s1)CCN(C(C)C)C2` [Compound 575, N-(6-Isopropyl-3-(5-(trifluoromethyl)benzo[d]thiazol-2-yl)-4,5,6,7-tetrahydrothieno[2,3-c]pyridin-2-yl)-3-((2-methoxyethyl)amino) propanamide]: the IC50 in assay [1] and in assay [2] (setting [3]) was under 0.3 µM throughout.
For `CCC(C)NCCC(=O)Nc1sc2c(c1-c1nc3cc(C)c(C)cc3s1)CCNC2` (centres unmarked) [Compound 576, 3-(sec-Butylamino)-N-(3-(5,6-dimethylbenzo[d]thiazol-2-yl)-4,5,6,7-tetrahydrothieno[2,3-c]pyridin-2-yl)propanamide], the IC50 in assay [1] and in assay [2] (setting [3]) was under 0.3 µM throughout.
Turning to `CCC(C)N(C)CCC(=O)Nc1sc2c(c1-c1nc3ccccc3s1)CCN(C(C)C)C2` (centres unmarked) [Compound 577, N-(3-(benzo[d]thiazol-2-yl)-6-isopropyl-4,5,6,7 tetrahydrothieno[2,3-c]pyridin-2-yl)-3-(sec-butyl(methyl)amino)propanamide], the IC50 in assay [1] was over 10 µM; in assay [2] (Table 2, compounds of FIG. 1, H2171 cells, three days, ATPlite, calculated IC50 class) it was over 10 µM.
With `CC[C@H](C)NCCC(=O)Nc1sc2c(c1-c1nc3cc(C(F)(F)F)ccc3s1)CCN(C(C)C)C2` [Compound 578, (S)-3-(sec-butylamino)-N-(6-isopropyl-3-(5-(trifluoromethyl)benzo[d]thiazol-2-yl)-4,5,6,7-tetrahydrothieno[2,3-c]pyridin-2-yl)propanamide], the IC50 in assay [1] is 0.3 to 1 µM; in assay [2] (setting [3]), under 0.3 µM.
As to `CC[C@H](C)NCCC(=O)Nc1sc2c(c1-c1nc3cc(-c4ccncc4)ccc3s1)CCNC2` [Compound 579, (S)-3-(sec-butylamino)-N-(3-(5-(pyridin-4-yl)benzo[d]thiazol-2-yl)-4,5,6,7-tetrahydrothieno[2,3-c]pyridin-2-yl)Propanamide], the IC50 in assay [1] and in assay [2] (setting [3]) was under 0.3 µM each time.
With `C=Cc1cccc2sc(-c3c(NC(=O)CCNCCOC)sc4c3CCNC4)nc12` [Compound 583, 3-(2-methoxyethylamino)-N-(3-(4-vinylbenzo[d]thiazol-2-yl)-4,5,6,7-tetrahydrothieno[2,3-c]pyridin-2-yl)propanamide bis(2,2,2-trifluoroacetate)], the IC50 in assay [1] and in assay [2] (setting [3]) was under 0.3 µM in each case.
On to `CC[C@H](C)NCCC(=O)Nc1sc2c(c1-c1nc3cc(-c4ccncc4)ccc3s1)CCN(CC)C2` [Compound 588, (S)-3-(sec-butylamino)-N-(6-ethyl-3-(5-(pyridin-4-yl)benzo[d]thiazol-2-yl)-4,5,6,7-tetrahydrothieno[2,3-c]pyridin-2-yl)propanamide], for which the IC50 in assay [1] and in assay [2] (setting [3]) was under 0.3 µM in each case.
With `CC[C@H](C)NCCC(=O)Nc1sc2c(c1-c1nc3cc(-c4ccncc4)ccc3s1)C[C@@H](C)NC2` [Compound 589, 3-(((S)-sec-butyl)amino)-N—((R)-5-methyl-3-(5(pyridin-4-yl)benzo[d]thiazol-2-yl)-4,5,6,7-tetrahydrothieno[2,3-c]pyridin-2-yl)propanamide], the IC50 in assay [1] and in assay [2] (setting [3]) was under 0.3 µM throughout.
As to `CCC(C)NCCC(=O)Nc1sc2c(c1-c1nc3cc(-c4ccncc4)ccc3s1)CCNC2C` [Compound 590, 3-(((S)-sec-butyl)amino)-N—((R)-7-methyl-3-(5-pyridin-4-yl)benzo[d]thiazol-2-yl)-4,5,6,7-tetrahydrothieno[2,3-c]pyridin-2-yl)propanamide], the IC50 in assay [1] and in assay [2] (setting [3]) was under 0.3 µM in each case.
For `Cc1ncsc1-c1ccc(CNC(=O)[C@@H]2C[C@@H](O)CN2C(=O)[C@@H](NC(=O)CCOCCOCCOCCOCCOCCOCCNCCC(=O)Nc2sc3c(c2-c2nc4ccccc4s2)CCNC3)C(C)(C)C)cc1` [Compound 591, N1-(3-(benzo[d]thiazol-2-yl)-4,5,6,7-tetrahydrothieno[2,3-c]pyridin-2-yl)-N25-((S)-1-((2S,4R)-4-hydroxy-2-((4-(4-methylthiazol-5-yl)benzyl)carbamoyl)pyrrolidin-1-yl)-3,3-dimethyl-1-oxobutan-2-yl)-7,10,13,16,19,22-hexaoxa-4-azapentacosanediamide], the IC50 is over 10 µM in assay [1] and under 0.3 µM in assay [2] (setting [3]).
As to `COCCNCCC(=O)Nc1sc2c(c1-c1nc3c(-n4cnc(C)c4)cccc3s1)CCNC2` [Compound 592, 3-((2-Methoxyethyl)amino)-N-(3-(4-(4-methyl-1H-imidazol-1-yl)benzo[d]thiazol-2-yl)-4,5,6,7-tetrahydrothieno[2,3-c]pyridin-2-yl)propanamide trihydrochloride], the IC50 in assay [1] and in assay [2] (setting [3]) was under 0.3 µM in each case.
Take `CC[C@H](C)NCCC(=O)Nc1sc2c(c1-c1nc3cc(-c4ccncc4)ccc3s1)CCN(C1CCC1)C2` [Compound 595, (S)-3-(sec-butylamino)-N-(6-cyclobutyl-3-(5-(pyridin-4-yl)benzo[d]thiazol-2-yl)-4,5,6,7-tetrahydrothieno[2,3-c]pyridin-2-yl)propanamide]: the IC50 in assay [1] is under 0.3 µM; in assay [2] (setting [3]) it was 0.3 to 1 µM.
Taken in the same sequence, the figures for `CC[C@H](C)NCCC(=O)Nc1sc2c(c1-c1nc3ccccc3s1)CCN(C1CC1)C2` [Compound 596, (S)—N-(3-(benzo[d]thiazol-2-yl)-6-cyclopropyl-4,5,6,7-tetrahydrothieno[2,3-c]pyridin-2-yl)-3-(sec-butylamino)propanamide] were over 10 µM and 0.3 to 1 µM.
Taken in the same sequence, the figures for `O=C(CCN[C@@H]1C[C@H]2CNC[C@H]2C1)Nc1sc2c(c1-c1nc3cc(-c4ccncc4)ccc3s1)CCNC2` [Compound 606, 3-(((3aR,5s,6aS)-octahydrocyclopenta[c]pyrrol-5-yl)amino)-N-(3-(5-(pyridin-4-yl)benzo[d]thiazol-2-yl)-4,5,6,7-tetrahydrothieno[2,3-c]pyridin-2-yl)propanamide] were under 0.3 µM and 0.3 to 1 µM.
